Results: patent US20210108247A1, “CHEMOENZYMATIC SYNTHESIS OF TREHALOSE ANALOGUES” (Central Michigan University, priority 2014, published 2021)

Experiments:
Assay type in all cases: cell-based
M. smegmatis wild type [1] = experiment: Uptake of fluoro trehalose, GC-MS of cytosolic extracts; details: 100 μM, 1 h, 37° C.
Protocol: Cultures of M. smegmatis wild type, ΔsugC mutant, or ΔsugC::sugC complement were generated by inoculating a single colony from a freshly streaked agar plate (with appropriate antibiotic, if needed) into 3 mL Middlebrook 7H9 liquid medium supplemented with ADC (albumin, dextrose, and catalase), 0.5% glycerol, and 0.05% Tween-80 in a culture tube. Starter cultures were incubated at 37° C. with shaking until reaching log phase. Cells were then cultured at 37° C. in the presence or absence of 2-, 3-, 4-, or 6-fluoro trehalose (100 μM) in 7H9 liquid medium for 1 h, then centrifuged and washed (5000 rpm for 5 min) three times in ultrapure water. The washed cells were resuspended in ultrapure water and boiled for 4 h, then centrifuged. The supernatant was collected and dried on a speedvac to yield water-soluble cytosolic metabolites (e.g., trehalose and fluoro trehaloses, if present), which were subsequently trimethylsilyl (TMS)-derivatized using N-Methyl-N-(trimethylsilyl) trifluoroacetamide (MSTFA) in pyridine and analyzed by gas chromatography-mass spectrometry (GC-MS).

[2] = system: M. smegmatis ΔsugC mutant; experiment: One-pot metabolic labeling and fluorescence imaging (CuAAC with alkyne fluorophore); details: ΔsugC mutant missing the trehalose transporter; 25 μM, 4 h
Protocol: One-Pot Metabolic Labeling and Imaging of M. smegmatis: Cultures of M. smegmatis wild type, ΔsugC mutant, or ΔsugC::sugC complement were generated by inoculating a single colony from a freshly streaked agar plate (with appropriate antibiotic, if needed) into 3 mL Middlebrook 7H9 liquid medium supplemented with ADC (albumin, dextrose, and catalase), 0.5% glycerol, and 0.05% Tween-80 in a culture tube. Starter cultures were incubated at 37° C. with shaking until reaching log phase. Meanwhile, using the procedure described above, a 50 μL TreT reaction employing 6-GlcAz (10 mM) as the substrate was carried out to synthesize 6-TreAz (+TreT sample). A control reaction lacking TreT was run in parallel (−TreT control). […] Given the observed quantitative conversion for this reaction (FIG. 1B, Entry 16), a 6-TreAz concentration of 10 mM was assumed in the +TreT sample. […] Fluorescence imaging was performed using a GFP LED light cube (maximum excitation/emission=470/510 nm). […]
The same experiments were performed in M. smegmatis ΔsugC, a mutant missing the trehalose transporter required for 6-TreAz uptake and labeling, as well as its complement, M. smegmatis ΔsugC::sugC. Fluorescence was abolished in the ΔsugC mutant and restored in the complement, confirming that 6-TreAz labeling proceeded via the trehalose transporter pathway.

[3] = system: M. smegmatis ΔsugC::sugC complement; experiment: as above; details: 25 μM, 4 h
Protocol: One-Pot Metabolic Labeling and Imaging of M. smegmatis: Cultures of M. smegmatis wild type, ΔsugC mutant, or ΔsugC::sugC complement were generated by inoculating a single colony from a freshly streaked agar plate (with appropriate antibiotic, if needed) into 3 mL Middlebrook 7H9 liquid medium supplemented with ADC (albumin, dextrose, and catalase), 0.5% glycerol, and 0.05% Tween-80 in a culture tube. Starter cultures were incubated at 37° C. with shaking until reaching log phase. Meanwhile, using the procedure described above, a 50 μL TreT reaction employing 6-GlcAz (10 mM) as the substrate was carried out to synthesize 6-TreAz (+TreT sample). A control reaction lacking TreT was run in parallel (−TreT control). After incubation at 70° C. for 1 h, the reactions were stopped by placing on ice. Given the observed quantitative conversion for this reaction (FIG. 1B, Entry 16), a 6-TreAz concentration of 10 mM was assumed in the +TreT sample. For the −TreT control, a 6-GcAz concentration of 10 mM was assumed. The aqueous reaction mixtures were directly diluted into M. smegmatis wild type, ΔsugC mutant, or ΔsugC::sugC complement growing in 7H9 liquid medium to a final azido sugar concentration of 25 μM and a culture density of OD600=0.15. […] Fluorescence imaging was performed using a GFP LED light cube (maximum excitation/emission=470/510 nm). […]

M. smegmatis wild type [4] = experiment: as above; details: +TreT reaction mixture, 25 μM azido sugar, 4 h, 37° C.

Compound	fluoro trehalose derivative in cytosolic extracts (uptake) (M. smegmatis wild type [1])	fluorescence labeling of bacteria (fluorescence microscopy) [2]	fluorescence labeling of bacteria (fluorescence microscopy) [3]	fluorescence labeling of bacteria (fluorescence microscopy) (M. smegmatis wild type [4])
OC[C@H]1O[C@H](O[C@H]2O[C@H](CO)[C@@H](O)[C@H](O)[C@H]2F)[C@H](O)[C@@H](O)[C@@H]1O [2-fluoro trehalose, 2-Deoxy-2-fluoro-α,α-D-trehalose]	observed in cytosolic extracts			
OC[C@H]1O[C@H](O[C@H]2O[C@H](CO)[C@@H](O)[C@H](F)[C@H]2O)[C@H](O)[C@@H](O)[C@@H]1O [3-fluoro trehalose, 3-Deoxy-3-fluoro-α,α-D-trehalose]	observed in cytosolic extracts			
[N-]=[N+]=NC[C@H]1O[C@H](O[C@H]2O[C@H](CO)[C@@H](O)[C@H](O)[C@H]2O)[C@H](O)[C@@H](O)[C@@H]1O [6-TreAz, 6-Azido-6-Deoxy-α,α-D-trehalose]		abolished	restored	strong labeling
OC[C@H]1O[C@H](O[C@H]2O[C@H](CF)[C@@H](O)[C@H](O)[C@H]2O)[C@H](O)[C@@H](O)[C@@H]1O [6-fluoro trehalose]	observed in cytosolic extracts			
